Laboratory results reported in US20240208992A1, “MACROCYCLES AS CFTR MODULATORS” (Idorsia Pharmaceuticals Ltd, priority 2021, published 2024).

Biological target: human F508del-CFTR (Homo sapiens, UniProt P13569, DEL508-508)
Assay: F508del-CFTR cell surface expression (corrector activity), DiscoveRx ß-galactosidase complementation chemiluminescence assay in recombinant U2OS cell line;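 further: U2OS cells co-expressing ProLink-tagged F508del-CFTR and a membrane-anchored enzyme acceptor, where more surface CFTR restores β-galactosidase activity measured by chemiluminescence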
Conditions: for EC50: EC50, F508del-CFTR cell surface expression, U2OS cells, 16h compound incubation, geomean values; for Emax: U2OS, in relation to Emax of corrector lumacaftor (=100%), arithmetic mean values

Sequence of human F508del-CFTR (P13569 with tags, fused parts or gaps DEL508-508): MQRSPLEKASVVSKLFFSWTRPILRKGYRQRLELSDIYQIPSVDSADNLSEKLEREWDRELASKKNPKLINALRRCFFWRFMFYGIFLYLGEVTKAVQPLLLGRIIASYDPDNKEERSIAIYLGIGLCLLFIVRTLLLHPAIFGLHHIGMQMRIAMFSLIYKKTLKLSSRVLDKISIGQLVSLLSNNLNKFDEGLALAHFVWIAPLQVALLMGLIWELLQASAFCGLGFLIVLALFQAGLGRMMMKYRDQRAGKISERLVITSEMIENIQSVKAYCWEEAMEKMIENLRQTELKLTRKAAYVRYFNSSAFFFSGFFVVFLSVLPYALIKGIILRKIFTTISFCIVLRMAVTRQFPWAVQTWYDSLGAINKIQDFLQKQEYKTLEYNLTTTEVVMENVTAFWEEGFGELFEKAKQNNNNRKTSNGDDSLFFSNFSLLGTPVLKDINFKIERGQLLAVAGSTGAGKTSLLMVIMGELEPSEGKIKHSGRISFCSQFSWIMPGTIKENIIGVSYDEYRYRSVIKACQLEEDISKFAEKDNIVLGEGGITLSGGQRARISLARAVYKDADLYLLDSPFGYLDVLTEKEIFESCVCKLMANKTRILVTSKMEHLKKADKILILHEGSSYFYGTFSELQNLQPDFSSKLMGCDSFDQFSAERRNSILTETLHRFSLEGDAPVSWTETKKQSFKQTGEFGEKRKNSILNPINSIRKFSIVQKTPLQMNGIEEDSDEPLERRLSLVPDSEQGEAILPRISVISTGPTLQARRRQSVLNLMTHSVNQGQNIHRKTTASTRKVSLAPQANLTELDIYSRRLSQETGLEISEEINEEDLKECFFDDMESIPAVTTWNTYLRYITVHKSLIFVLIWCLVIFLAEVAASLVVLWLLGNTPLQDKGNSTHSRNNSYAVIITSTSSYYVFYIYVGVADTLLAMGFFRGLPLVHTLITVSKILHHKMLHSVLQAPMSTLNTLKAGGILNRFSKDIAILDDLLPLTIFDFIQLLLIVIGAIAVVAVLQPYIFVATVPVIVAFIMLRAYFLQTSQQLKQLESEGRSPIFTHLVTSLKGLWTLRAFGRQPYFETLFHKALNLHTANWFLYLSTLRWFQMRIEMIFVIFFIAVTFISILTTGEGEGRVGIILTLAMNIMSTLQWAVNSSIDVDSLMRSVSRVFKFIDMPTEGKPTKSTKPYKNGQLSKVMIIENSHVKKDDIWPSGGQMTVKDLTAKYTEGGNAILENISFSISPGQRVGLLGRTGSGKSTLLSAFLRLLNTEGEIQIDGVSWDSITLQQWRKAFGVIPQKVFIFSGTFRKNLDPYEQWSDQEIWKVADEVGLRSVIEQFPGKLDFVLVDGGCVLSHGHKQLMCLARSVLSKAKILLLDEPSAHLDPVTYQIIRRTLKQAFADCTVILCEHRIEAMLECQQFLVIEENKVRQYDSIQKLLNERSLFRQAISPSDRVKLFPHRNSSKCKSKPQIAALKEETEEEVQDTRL

Structure (SMILES)	EC50 [nM]	Emax [%]
COc1nccc2c1C(=O)N[C@H](C(=O)NCCc1cc(C3CC3)no1)CC(=O)N(C)[C@@H](CC(C)C)C(=O)N1CC[C@H](c3ccccc3)C[C@@H]1C(=O)N[C@H](Cc1ccccc1)CO2 [Example 673, (7S,11S,17aR,20R)-20-benzyl-N-(2-(3-cyclopropylisoxazol-5-yl)ethyl)-11-isobutyl-4-methoxy-10-methyl-5,9,12,18-tetraoxo-16-phenyl-5,6,7,8,9,10,11,12,15,16,17,17a,18,19,20,21-hexadecahydro-14H-dipyrido[2,1-f:3′,4′-p][1]oxa[4,7,10,14]tetraazacycloheptadecine-7-carboxamide]	67	314
CC(C)C[C@H]1C(=O)N2CC[C@@H](c3ccccc3)C[C@H]2C(=O)N[C@H](Cc2ccccc2)COc2cnc3ccccc3c2C(=O)N[C@H](C(=O)NCCc2cc(C3CC3)no2)CC(=O)N1C [Example 675, (9S,13S,19aS,22R)-22-benzyl-N-(2-(3-cyclopropylisoxazol-5-yl)ethyl)-13-isobutyl-12-methyl-7,11,14,20-tetraoxo-18-phenyl-7,8,9,10,11,12,13,14,17,18,19,19a,20,21,22,23-hexadecahydro-16H-pyrido[2′,1′:6,7][1]oxa[4,7,10,14]tetraazacycloheptadecino[17,16-c]quinoline-9-carboxamide]	194	159
CC(C)C[C@H]1C(=O)N2CC[C@@H](c3ccccc3)C[C@@H]2C(=O)N[C@H](Cc2ccccc2)COc2cnc3ccccc3c2C(=O)N[C@H](C(=O)NCCc2cc(C3CC3)no2)CC(=O)N1C [Example 676, (9S,13S,19aR,22R)-22-benzyl-N-(2-(3-cyclopropylisoxazol-5-yl)ethyl)-13-isobutyl-12-methyl-7,11,14,20-tetraoxo-18-phenyl-7,8,9,10,11,12,13,14,17,18,19,19a,20,21,22,23-hexadecahydro-16H-pyrido[2′,11:6,7][1]oxa[4,7,10,14]tetraazacycloheptadecino[17,16-c]quinoline-9-carboxamide]	62	267
CC(C)C[C@H]1C(=O)N2CC[C@H](c3ccccc3)C[C@@H]2C(=O)N[C@H](Cc2ccccc2)COc2cnc3ccccc3c2C(=O)N[C@H](C(=O)NCCc2cc(C3CC3)no2)CC(=O)N1C [Example 677, (9S,13S,19aR,22R)-22-benzyl-N-(2-(3-cyclopropylisoxazol-5-yl)ethyl)-13-isobutyl-12-methyl-7,11,14,20-tetraoxo-18-phenyl-7,8,9,10,11,12,13,14,17,18,19,19a,20,21,22,23-hexadecahydro-16H-pyrido[2′,1′:6,7][1]oxa[4,7,10,14]tetraazacycloheptadecino[17,16-c]quinoline-9-carboxamide]	37	283
COc1nccc2c1C(=O)N[C@H](C(=O)NCCc1cc(C)no1)CC(=O)N(C)[C@@H](CC(C)C)C(=O)N1Cc3ccccc3C[C@@H]1C(=O)N[C@H](Cc1ccccc1)CO2 [Example 678, (7S,11S,19aR,22R)-22-benzyl-11-isobutyl-4-methoxy-10-methyl-N-(2-(3-methylisoxazol-5-yl)ethyl)-5,9,12,20-tetraoxo-5,6,7,8,9,10,11,12,19,19a,20,21,22,23-tetradecahydro-14H-pyrido[3′,4′:16,17][1]oxa[4,7,10,14]tetraazacycloheptadecino[7,6-b]isoquinoline-7-carboxamide]	355	296
COc1nccc2c1C(=O)N[C@H](C(=O)NCCc1cc(C)no1)CC(=O)N(C)[C@@H](CC(C)C)C(=O)N1CCc3ccccc3[C@@H]1C(=O)N[C@H](Cc1ccccc1)CO2 [Example 679, (7S,11S,19bR,22R)-22-benzyl-11-isobutyl-4-methoxy-10-methyl-N-(2-(3-methylisoxazol-5-yl)ethyl)-5,9,12,20-tetraoxo-5,6,7,8,9,10,11,12,15,19b,20,21,22,23-tetradecahydro-14H-pyrido[3′,4′:16,17][1]oxa[4,7,10,14]tetraazacycloheptadecino[6,7-a]isoquinoline-7-carboxamide]	869	277
COc1cccc(CCNC(=O)[C@@H]2CC(=O)N(C)[C@@H](CC(C)C)C(=O)N(C)[C@H](C)C(=O)N[C@H](Cc3ccccc3)COc3cnc4ccccc4c3C(=O)N2)c1 [Example 680, (3S,7S,10R,13R)-13-benzyl-7-isobutyl-N-(3-methoxyphenethyl)-6,9,10-trimethyl-1,5,8,11-tetraoxo-1,2,3,4,5,6,7,8,9,10,11,12,13,14-tetradecahydro-[1]oxa[4,7,10,14]tetraazacycloheptadecino[17,16-c]quinoline-3-carboxamide]	448	340
COc1nccc2c1C(=O)N[C@H](C(=O)NCCc1noc(C3CC3)n1)CC(=O)N(C)[C@@H](CC(C)C)C(=O)N(C)[C@H](c1ccccc1)C(=O)N[C@H](Cc1ccccc1)CO2 [Example 681, (3R,6R,9S,13S)-3-benzyl-N-(2-(5-cyclopropyl-1,2,4-oxadiazol-3-yl)ethyl)-9-isobutyl-16-methoxy-7,10-dimethyl-5,8,11,15-tetraoxo-6-phenyl-2,3,4,5,6,7,8,9,10,11,12,13,14,15-tetradecahydropyrido[3,4-p][1]oxa[4,7,10,14]tetraazacycloheptadecine-13-carboxamide]	447	313
COc1nccc2c1C(=O)N[C@H](C(=O)NCCc1cc(C3CC3)on1)CC(=O)N(C)[C@@H](CC(C)C)C(=O)N(C)[C@H](CC1CCC(F)(F)CC1)C(=O)N[C@H](Cc1ccccc1)CO2 [Example 682, (3R,6R,9S,13S)-3-benzyl-N-(2-(5-cyclopropylisoxazol-3-yl)ethyl)-6-((4,4-difluorocyclohexyl)methyl)-9-isobutyl-16-methoxy-7,10-dimethyl-5,8,11,15-tetraoxo-2,3,4,5,6,7,8,9,10,11,12,13,14,15-tetradecahydropyrido[3,4-p][1]oxa[4,7,10,14]tetraazacycloheptadecine-13-carboxamide]	110	351
COc1nc(C)cc2c1C(=O)N[C@H](C(=O)NCCc1cc(C)no1)CC(=O)N(C)[C@@H](CC(C)C)C(=O)N1CCC3(CC3)C[C@@H]1C(=O)N[C@H](Cc1ccccc1)CO2 [Example 683, (7′S,11′S,17a′R,20′R)-20′-benzyl-11′-isobutyl-4′-methoxy-2′,10′-dimethyl-N-(2-(3-methylisoxazol-5-yl)ethyl)-5′,9′,12′,18′-tetraoxo-5′,6′,7′,8′,9′,10′,11′,12′,14′,15′,17′,17a′,18′,19′,20′,21′-hexadecahydrospiro[cyclopropane-1,16′-dipyrido[2,1-f:3′,4′-p][1]oxa[4,7,10,14]tetraazacycloheptadecine]-7′-carboxamide]	362	262
COc1cc(CCNC(=O)[C@@H]2CC(=O)N(C)[C@@H](CC(C)C)C(=O)N3CCC4(CC4)C[C@H]3C(=O)N[C@H](Cc3ccccc3)COc3cc(C)nc(OC)c3C(=O)N2)on1 [Example 684, (7′S,11′S,17a′S,20′R)-20′-benzyl-11′-isobutyl-4′-methoxy-N-(2-(3-methoxyisoxazol-5-yl)ethyl)-2′,10′-dimethyl-5′,9′,12′,18′-tetraoxo-5′,6′,7′,8′,9′,10′,11′,12′,14′,15′,17′,17a′,18′,19′,20′,21′-hexadecahydrospiro[cyclopropane-1,16′-dipyrido[2,1-f:3′,4′-p][1]oxa[4,7,10,14]tetraazacycloheptadecine]-7′-carboxamide]	986	235
[2H]C([2H])([2H])Oc1nc(C)cc2c1C(=O)N[C@H](C(=O)NCCc1cnn(C3CC3)n1)CC(=O)N(C)[C@@H](CC(C)C)C(=O)N1CCCC[C@@H]1C(=O)N[C@H](Cc1ccccc1)CO2 [Example 685, (7S,11S,17aR,20R)-20-benzyl-N-(2-(2-cyclopropyl-2H-1,2,3-triazol-4-yl)ethyl)-11-isobutyl-4-(methoxy-d3)-]	500	234
COc1cc(CCNC(=O)[C@@H]2CC(=O)N(C)[C@@H](CC(C)C)C(=O)N(C)C3(CC3)C(=O)N[C@H](Cc3ccccc3)COc3cnc4ccccc4c3C(=O)N2)on1 [Example 686, (3′S,7′S,13′R)-13′-benzyl-7′-isobutyl-N-(2-(3-methoxyisoxazol-5-yl)ethyl)-6′,9′-dimethyl-1′,5′,8′,11′-tetraoxo-2′,3′,4′,5′,6′,7′,8′,9′,11′,12′,13′,14′-dodecahydro-1′H-spiro[cyclopropane-1,10′-[1]oxa[4,7,10,14]tetraazacycloheptadecino[17,16-c]quinoline]-3′-carboxamide]	436	332
CC(C)C[C@H]1C(=O)N(C)CC(=O)N[C@H](Cc2ccccc2)COc2ccccc2C(=O)N[C@H](C(=O)NCCc2ccc3c(c2)OCO3)CC(=O)N1C [Example 687, (3R,9S,13S)-N-(2-(benzo[d][1,3]dioxol-5-yl)ethyl)-3-benzyl-9-isobutyl-7,10-dimethyl-5,8,11,15-tetraoxo-2,3,4,5,6,7,8,9,10,11,12,13,14,15-tetradecahydrobenzo[p][1]oxa[4,7,10,14]tetraazacycloheptadecine-13-carboxamide]	794	107
CC(C)C[C@H]1C(=O)N(C)CC(=O)N[C@H](Cc2ccccc2)COc2ccccc2C(=O)N[C@H](C(=O)NCCc2ccc3c(c2)OCCO3)CC(=O)N1C [Example 688, (3R,9S,13S)-3-benzyl-N-(2-(2,3-dihydrobenzo[b][1,4]dioxin-6-yl)ethyl)-9-isobutyl-7,10-dimethyl-5,8,11,15-tetraoxo-2,3,4,5,6,7,8,9,10,11,12,13,14,15-tetradecahydrobenzo[p][1]oxa[4,7,10,14]tetraazacycloheptadecine-13-carboxamide]	458	104
